Patent US20070010671A1, “Novel quinazoline derivatives and methods of treatment related to the use thereof” (priority 2003, published 2007)

Each molecule was assayed against MCH receptor (Homo sapiens, UniProt Q99705) (assay: High throughput functional screening FLIPR/FDSS6000: inhibition of MCH-evoked intracellular Ca2+ changes). Settings: class by percent of control at 10^-7 M or IC50.
Format: cell-based
Outline: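 Constitutively active non-endogenous MCH-R cells; Fluo4-AM 4 μM, 2.5 mM probenecid, 1 hr, 37° C; cpd 3 min, 37° C; MCH 50 nM (antagonist mode); kinetic Ca2+ read Ex488/Em530, 290 s.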

Molecule	class
CN(C)c1nc(N[C@H]2CC[C@@H](CNC(=O)NCc3ccccc3Cl)CC2)nc2ccccc12 [compound 490, N-(2-chlorobenzyl)-N′-[(cis-4-{[4-(dimethylamino)quinazolin-2-yl]amino}cyclohexyl)methyl]urea]	1 (Class 1: The value of percent of control at 10^−7 M was less than 40% or the value of IC50 was less than 50 nM.)
CN(C)c1nc(N[C@H]2CC[C@@H](NC(=S)Nc3ccc(C(C)(C)C)cc3)CC2)nc2ccccc12 [compound 375]	3 (Class 3: The value of percent of control at 10^−7 M was more than 60% or the value of IC50 was more than 200 nM.)
CN(C)c1nc(N[C@H]2CC[C@@H](CNC(=S)Nc3c(F)cccc3F)CC2)nc2ccccc12 [compound 637]	3 (Class 3: The value of percent of control at 10^−7 M was more than 60% or the value of IC50 was more than 200 nM.)
Cc1cc(Cl)ccc1NC(=S)N[C@H]1CC[C@@H](Nc2nc(N(C)C)c3ccccc3n2)CC1 [compound 269]	1 (Class 1: The value of percent of control at 10^−7 M was less than 40% or the value of IC50 was less than 50 nM.)
CN(C)c1nc(N[C@H]2CC[C@@H](NC(=S)Nc3ccc(C(=O)O)cc3)CC2)nc2ccccc12 [compound 313]	3 (Class 3: The value of percent of control at 10^−7 M was more than 60% or the value of IC50 was more than 200 nM.)
COc1ccc(NC(=S)N[C@H]2CC[C@@H](Nc3nc(N(C)C)c4ccccc4n3)CC2)c(C)c1 [compound 320, N-(cis-4-{[4-(dimethylamino)quinazolin-2-yl]amino}cyclohexyl)-N′-(4-methoxy-2-methylphenyl)thiourea]	1 (Class 1: The value of percent of control at 10^−7 M was less than 40% or the value of IC50 was less than 50 nM.)
CN(C)c1nc(N[C@H]2CC[C@@H](CNC(=S)Nc3ccc(Cl)c(C(F)(F)F)c3)CC2)nc2ccccc12 [compound 659]	3 (Class 3: The value of percent of control at 10^−7 M was more than 60% or the value of IC50 was more than 200 nM.)
CN(C)c1nc(N[C@H]2CC[C@@H](CNC(=S)Nc3cccc(F)c3)CC2)nc2ccccc12 [compound 650]	3 (Class 3: The value of percent of control at 10^−7 M was more than 60% or the value of IC50 was more than 200 nM.)
Cc1cccc(C(C)C)c1NC(=S)NC[C@H]1CC[C@@H](Nc2nc(N(C)C)c3ccccc3n2)CC1 [compound 787]	1 (Class 1: The value of percent of control at 10^−7 M was less than 40% or the value of IC50 was less than 50 nM.)
Cc1ccccc1NC(=S)NC[C@H]1CC[C@@H](Nc2nc(N(C)C)c3ccccc3n2)CC1 [compound 622]	3 (Class 3: The value of percent of control at 10^−7 M was more than 60% or the value of IC50 was more than 200 nM.)
CN(C)c1nc(N[C@H]2CC[C@@H](NC(=S)Nc3ccccc3OC(F)(F)F)CC2)nc2ccccc12 [compound 207, N-(cis-4-{[4-(dimethylamino)quinazolin-2-yl]amino}cyclohexyl)-N′-[2-(trifluoromethoxy)phenyl]thiourea]	2 (Class 2: The value of percent of control at 10^−7 M was from 40% to 60% or the value of IC50 was from 50 nM to 200 nM.)
CN(C)c1nc(N[C@H]2CC[C@@H](CNC(=S)Nc3ccc(Oc4ccccc4)cc3)CC2)nc2ccccc12 [compound 745]	3 (Class 3: The value of percent of control at 10^−7 M was more than 60% or the value of IC50 was more than 200 nM.)
CCCCOC(=O)c1ccccc1NC(=O)N[C@H]1CC[C@@H](Nc2nc(N(C)C)c3ccccc3n2)CC1 [compound 330]	3 (Class 3: The value of percent of control at 10^−7 M was more than 60% or the value of IC50 was more than 200 nM.)
Cc1cc(Br)cc(C)c1NC(=S)N[C@H]1CC[C@@H](Nc2nc(N(C)C)c3ccccc3n2)CC1 [compound 266, N-(4-bromo-2,6-dimethylphenyl)-N′-(cis-4-{[4-(dimethylamino)quinazolin-2-yl]amino}cyclohexyl)thiourea]	1 (Class 1: The value of percent of control at 10^−7 M was less than 40% or the value of IC50 was less than 50 nM.)
CN(C)c1nc(N[C@H]2CC[C@@H](NC(=S)Nc3cc(C(F)(F)F)ccc3Cl)CC2)nc2ccccc12 [compound 253]	3 (Class 3: The value of percent of control at 10^−7 M was more than 60% or the value of IC50 was more than 200 nM.)
N-[(cis-4-{[4-(dimethylamino)quinazolin-2-yl]amino}cyclohexyl)methyl]-N′-(2,4,6-tribromophenyl)urea [compound 475]	1 (Class 1: The value of percent of control at 10^−7 M was less than 40% or the value of IC50 was less than 50 nM.)
CN(C)c1nc(N[C@H]2CC[C@@H](NC(=S)Nc3ccc(OCc4ccccc4)cc3)CC2)nc2ccccc12 [compound 265]	3 (Class 3: The value of percent of control at 10^−7 M was more than 60% or the value of IC50 was more than 200 nM.)
CN(C)c1nc(N[C@H]2CC[C@@H](NC(=S)NC3CC4CCC3C4)CC2)nc2ccccc12 (relative stereo) [compound 377]	1 (Class 1: The value of percent of control at 10^−7 M was less than 40% or the value of IC50 was less than 50 nM.)
CN(C)c1nc(N[C@H]2CC[C@@H](CNC(=S)NCc3cccc4ccccc34)CC2)nc2ccccc12 [compound 713]	3 (Class 3: The value of percent of control at 10^−7 M was more than 60% or the value of IC50 was more than 200 nM.)
CN(C)c1nc(N[C@H]2CC[C@@H](CNC(=S)NC3CCCC3)CC2)nc2ccccc12 [compound 586]	3 (Class 3: The value of percent of control at 10^−7 M was more than 60% or the value of IC50 was more than 200 nM.)
CN(C)c1nc(N[C@H]2CC[C@@H](NC(=S)Nc3ccccc3OC(F)F)CC2)nc2ccccc12 [compound 215]	3 (Class 3: The value of percent of control at 10^−7 M was more than 60% or the value of IC50 was more than 200 nM.)
CN(C)c1nc(N[C@H]2CC[C@@H](NC(=O)Nc3ccc(C(C)(C)C)cc3)CC2)nc2ccccc12 [compound 345]	3 (Class 3: The value of percent of control at 10^−7 M was more than 60% or the value of IC50 was more than 200 nM.)

Same assay, conditions: class by percent of control at 10^-7 M or by IC50; read-out: class

Molecule	IC50
CC(=O)c1cccc(NC(=O)N[C@H]2CC[C@@H](Nc3nc(N(C)C)c4ccccc4n3)CC2)c1 [compound 4]	> 200 nM
CCc1ccccc1NC(=O)N[C@H]1CC[C@@H](Nc2nc(N(C)C)c3ccccc3n2)CC1 [compound 95, N-(cis-4-{[4-(dimethylamino)quinazolin-2-yl]amino}cyclohexyl)-N′-(2-ethylphenyl)urea]	< 50 nM
CN(C)c1nc(N[C@H]2CC[C@@H](CNC(=S)NCCN3CCCCC3)CC2)nc2ccccc12 [compound 813]	> 200 nM
CN(C)c1nc(N[C@H]2CC[C@@H](NC(=O)Nc3ccc(F)cc3)CC2)nc2ccccc12 [compound 36, N-(cis-4-{[4-(dimethylamino)quinazolin-2-yl]amino}cyclohexyl)-N′-(4-fluorophenyl)urea]	< 50 nM
COCCOC(=O)NC[C@H]1CC[C@@H](Nc2nc(N(C)C)c3ccccc3n2)CC1 [compound 872]	> 200 nM
COc1ccccc1NC(=O)N[C@H]1CC[C@@H](Nc2nc(N(C)C)c3ccccc3n2)CC1 [compound 45, N-(cis-4-{[4-(dimethylamino)quinazolin-2-yl]amino}cyclohexyl)-N′-(2-methoxyphenyl)urea]	50 to 200 nM
CCOC(=O)C(CC(C)C)NC(=O)NC1CCC(Nc2nc(N(C)C)c3ccccc3n2)CC1 (stereo not drawn) [compound 34, ethyl N-{[(cis-4-{[4-(dimethylamino)quinazolin-2-yl]amino}cyclohexyl)amino]carbonyl}lucinate]	< 50 nM
COc1cc(NC(=S)N[C@H]2CC[C@@H](Nc3nc(N(C)C)c4ccccc4n3)CC2)cc(OC)c1OC [compound 195, N-(cis-4-{[4-(dimethylamino)quinazolin-2-yl]amino}cyclohexyl)-N′-(3,4,5-trimethoxyphenyl)thiourea]	< 50 nM
CN(C)c1nc(N[C@H]2CC[C@@H](NC(=O)Nc3ccc(Oc4ccccc4)cc3)CC2)nc2ccccc12 [compound 53, N-(cis-4-{[4-(dimethylamino)quinazolin-2-yl]amino}cyclohexyl)-N′-(4-phenoxyphenyl)urea]	< 50 nM
CN(C)c1nc(N[C@H]2CC[C@@H](CNC(=O)Oc3ccccc3)CC2)nc2ccccc12 [compound 879]	> 200 nM
CN(C)c1nc(N[C@H]2CC[C@@H](NC(=O)Nc3ccc(F)cc3[N+](=O)[O-])CC2)nc2ccccc12 [compound 822, N-(cis-4-{[4-(dimethylamino)quinazolin-2-yl]amino}cyclohexyl)-N′-(4-fluoro-2-nitrophenyl)urea]	50 to 200 nM

Same assay, conditions: class by percent of control at 10^−7 M or by IC50; read-out: class

Molecule	IC50
CN(C)c1nc(N[C@H]2CC[C@@H](NC(=O)CNc3ccc(Cl)cc3)CC2)nc2ccccc12 [Example 1089, N2-(4-chlorophenyl)-N-(cis-4-{[4-(dimethylamino)quinazolin-2-yl]amino}cyclohexyl)glycinamide]	< 50 nM
CN(C)c1nc(N[C@H]2CC[C@@H](C(=O)NCc3cc(C(F)(F)F)ccc3Cl)CC2)nc2ccccc12 [Example 1183, cis-N-[2-chloro-5-(trifluoromethyl)benzyl]-4-{[4-(dimethylamino)quinazolin-2-yl]amino}cyclohexanecarboxamide]	< 50 nM
N-(cis-4-{[4-(dimethylamino)quinazolin-2-yl]amino}cyclohexyl)-6-(3,4,5-trimethoxyphenoxy)nicotinamide [Example 1067]	50 to 200 nM
CN(C)c1nc(N[C@H]2CC[C@@H](NC(=O)c3cccnc3Oc3ccccc3Br)CC2)nc2ccccc12 [Example 1032, 2-(2-bromophenoxy)-N-(cis-4-{[4-(dimethylamino)quinazolin-2-yl]amino}cyclohexyl)nicotinamide]	< 50 nM
CN(C)c1nc(N[C@H]2CC[C@@H](C(=O)NCc3ccc(Cl)c(C(F)(F)F)c3)CC2)nc2ccccc12 [Example 1178, cis-N-[4-chloro-3-(trifluoromethyl)benzyl]-4-{[4-(dimethylamino)quinazolin-2-yl]amino}cyclohexanecarboxamide]	< 50 nM
